In article PMC9090415, “Discovery of small molecule inhibitors of Plasmodium falciparum apicoplast DNA polymerase” (Journal of Enzyme Inhibition and Medicinal Chemistry, 2022):

Target: P. falciparum apicoplast DNA polymerase (Pf-apPOL) (Plasmodium falciparum, UniProt Q8ILY1)
Test: Fluorescence-based high-throughput DNA polymerase assay (molecular beacon), primary screen and dose-response
Type: biochemical
Conditions: for DNA Pol: 90 min, 10 µM; for % inhibition apPOL 180' 2.5 / % inhibition apPOL 180' 5 / % inhibition apPOL 180' 10 / % inhibition apPOL 180' 20 / % inhibition apPOL 180' 40 / % inhibition apPOL 180' 80: read at 180'
Method in brief: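 Single-point screening used 10 µM compound with 20 nM polymerase, 20 nM hairpin substrate and 6 µM dNTPs for 90 min at 25 °C. Confirmatory titrations (2.5–80 µM) followed fluorescence at three times, and IC50 was derived from a fit including a cooperativity term n.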

P. falciparum apicoplast DNA polymerase (Pf-apPOL), sequence (Q8ILY1 entry or part of it): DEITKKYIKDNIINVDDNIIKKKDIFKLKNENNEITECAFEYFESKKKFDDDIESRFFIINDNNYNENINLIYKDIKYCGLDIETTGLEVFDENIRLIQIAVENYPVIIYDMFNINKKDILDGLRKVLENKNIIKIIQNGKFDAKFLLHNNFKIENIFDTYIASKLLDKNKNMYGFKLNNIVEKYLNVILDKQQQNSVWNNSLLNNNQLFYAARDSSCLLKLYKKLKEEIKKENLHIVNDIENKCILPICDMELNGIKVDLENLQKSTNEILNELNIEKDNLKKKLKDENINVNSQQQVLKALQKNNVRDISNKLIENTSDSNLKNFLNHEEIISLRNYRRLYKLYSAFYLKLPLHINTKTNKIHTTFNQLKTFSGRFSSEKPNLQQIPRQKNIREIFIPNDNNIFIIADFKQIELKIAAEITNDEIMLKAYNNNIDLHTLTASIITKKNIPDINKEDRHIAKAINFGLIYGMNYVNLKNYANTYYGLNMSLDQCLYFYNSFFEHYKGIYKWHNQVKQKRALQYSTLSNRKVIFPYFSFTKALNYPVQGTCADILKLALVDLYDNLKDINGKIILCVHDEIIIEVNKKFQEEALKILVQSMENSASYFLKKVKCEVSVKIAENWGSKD

Q: How did the “DNA Pol” value (186 hits, DNA Pol (screen value), unit not given) turn out when `CC(=O)Nc1cc(C(=O)c2cccs2)nn(-c2ccc(Cl)cc2)c1=O` [KU0267905] was run?
A: 68

Q: And the “DNA Pol” value ('DNA Pol' (screen value), unit not given)?
A: 68

Q: And the “% inhibition Apo pol 10' 2.5” value (DRC-1, read at 10', concentration 2.5)?
A: -1.115%

Q: And the “% inhibition Apo pol 10' 5” value (DRC-1, read at 10', concentration 5)?
A: 9.678%

Q: What about the “% inhibition Apo pol 10' 10” value (DRC-1, read at 10', concentration 10) of the same compound?
A: 23.8402%

Q: What about the “% inhibition Apo pol 10' 20” value (DRC-1, read at 10', concentration 20) of the same compound?
A: 30.1491%

Q: What about the “% inhibition Apo pol 10' 40” value (DRC-1, read at 10', concentration 40) of the same compound?
A: 60.7427%

Q: What about the “% inhibition Apo pol 10' 80” value (DRC-1, read at 10', concentration 80) of the same compound?
A: 68.442%

Q: And the “% inhibition Apol 90' 2.5” value (DRC-1, read at 90', concentration 2.5)?
A: -1.383%

Q: What about the “% inhibition Apol 90' 5” value (DRC-1, read at 90', concentration 5) of the same compound?
A: -2.969%

Q: What about the “% inhibition Apol 90' 10” value (DRC-1, read at 90', concentration 10) of the same compound?
A: 7.904%

Q: And the “% inhibition Apol 90' 20” value (DRC-1, read at 90', concentration 20)?
A: 14.4381%

Q: What about the “% inhibition Apol 90' 40” value (DRC-1, read at 90', concentration 40) of the same compound?
A: 45.4354%

Q: And the “% inhibition Apol 90' 80” value (DRC-1, read at 90', concentration 80)?
A: 70.7976%

Q: What about the “% inhibition apPOL 180' 2.5” value (DRC-1, concentration 2.5) of the same compound?
A: -1.959%

Q: What about the “% inhibition apPOL 180' 5” value (DRC-1, concentration 5) of the same compound?
A: -7.949%

Q: And the “% inhibition apPOL 180' 10” value (DRC-1, concentration 10)?
A: -1.249%

Q: And the “% inhibition apPOL 180' 20” value (DRC-1, concentration 20)?
A: 2.642%

Q: What about the “% inhibition apPOL 180' 40” value (DRC-1, concentration 40) of the same compound?
A: 28.3479%

Q: And the “% inhibition apPOL 180' 80” value (DRC-1, concentration 80)?
A: 62.799%

Q: What about the “% inhibition Apo pol 5'” value (DRC-2, concentration 2.5) of the same compound?
A: 7%

Q: And the “% inhibition Apol 40'” value (DRC-2, concentration 5)?
A: 7%

Q: And the “% inhibition Apol 40'” value (DRC-2, concentration 80)?
A: 52%

Q: And the “% inhibition ApPOL 90'” value (DRC-2, concentration 5)?
A: 4%

Q: What about the “% inhibition apPOL 180'” value (DRC-2, concentration 10) of the same compound?
A: 4%

Q: And the “% inhibition apPOL 180'” value (DRC-2, concentration 80)?
A: 52%

Q: What about the “% inhibition Apo pol 5' 2.5” value (DRC-2, read at 5', concentration 2.5) of the same compound?
A: 7%

Q: What about the “% inhibition Apo pol 5' 5” value (DRC-2, read at 5', concentration 5) of the same compound?
A: 11%

Q: And the “% inhibition Apo pol 5' 10” value (DRC-2, read at 5', concentration 10)?
A: 21%

Q: And the “% inhibition Apo pol 5' 20” value (DRC-2, read at 5', concentration 20)?
A: 29%

Q: What about the “% inhibition Apo pol 5' 40” value (DRC-2, read at 5', concentration 40) of the same compound?
A: 40%

Q: What about the “% inhibition Apo pol 5' 80” value (DRC-2, read at 5', concentration 80) of the same compound?
A: 36%

Q: And the “% inhibition Apol 40' 2.5” value (DRC-2, read at 40', concentration 2.5)?
A: 4.64%

Q: What about the “% inhibition Apol 40' 5” value (DRC-2, read at 40', concentration 5) of the same compound?
A: 7%

Q: And the “% inhibition Apol 40' 10” value (DRC-2, read at 40', concentration 10)?
A: 15%

Q: What about the “% inhibition Apol 40' 20” value (DRC-2, read at 40', concentration 20) of the same compound?
A: 25%

Q: What about the “% inhibition Apol 40' 40” value (DRC-2, read at 40', concentration 40) of the same compound?
A: 44%

Q: What about the “% inhibition Apol 40' 80” value (DRC-2, read at 40', concentration 80) of the same compound?
A: 52%

Q: And the “% inhibition ApPOL 90' 2.5” value (DRC-2, read at 90', concentration 2.5)?
A: 3.39%

Q: And the “% inhibition ApPOL 90' 5” value (DRC-2, read at 90', concentration 5)?
A: 4%

Q: And the “% inhibition ApPOL 90' 10” value (DRC-2, read at 90', concentration 10)?
A: 12%

Q: What about the “% inhibition ApPOL 90' 20” value (DRC-2, read at 90', concentration 20) of the same compound?
A: 19%

Q: And the “% inhibition ApPOL 90' 40” value (DRC-2, read at 90', concentration 40)?
A: 42%

Q: What about the “% inhibition ApPOL 90' 80” value (DRC-2, read at 90', concentration 80) of the same compound?
A: 55%

Q: And the “% inhibition apPOL 180' 2.5” value (DRC-2, concentration 2.5)?
A: -1.41%

Q: And the “% inhibition apPOL 180' 5” value (DRC-2, concentration 5)?
A: 0.65%

Q: What about the “% inhibition apPOL 180' 10” value (DRC-2, concentration 10) of the same compound?
A: 4%

Q: And the “% inhibition apPOL 180' 20” value (DRC-2, concentration 20)?
A: 9%

Q: What about the “% inhibition apPOL 180' 40” value (DRC-2, concentration 40) of the same compound?
A: 31%

Q: And the “% inhibition apPOL 180' 80” value (DRC-2, concentration 80)?
A: 52%

Q: With `Cc1ccc(C(=O)/C=C/C=C/C=C/N(C)C)o1` [Molecule 96, CN(/C=C/C=C/C=C/C(=O)c1ccc(o1)C)C] as the compound, how does the “DNA Pol” value ("DNA Pol" of the 186 hits list (screen value)) read?
A: 48

Q: What about the “% inhibition Apo pol 10'” value (DRC-1, concentration 2.5) of the same compound?
A: 21.8998%

Q: And the “% inhibition Apo pol 10'” value (DRC-1, concentration 5)?
A: 52.2247%

Q: What about the “% inhibition Apo pol 10'” value (DRC-1, concentration 10) of the same compound?
A: 71.8634%

Q: What about the “% inhibition Apo pol 10'” value (DRC-1, concentration 20) of the same compound?
A: 65.9561%

Q: And the “% inhibition Apo pol 10'” value (DRC-1, concentration 40)?
A: 68.0612%

Q: And the “% inhibition Apo pol 10'” value (DRC-1, concentration 80)?
A: 57.2941%

Q: What about the “% inhibition Apol 90'” value (DRC-1, concentration 2.5) of the same compound?
A: 11.0382%

Q: What about the “% inhibition Apol 90'” value (DRC-1, concentration 5) of the same compound?
A: 37.6511%

Q: And the “% inhibition Apol 90'” value (DRC-1, concentration 10)?
A: 62.1527%

Q: What about the “% inhibition Apol 90'” value (DRC-1, concentration 20) of the same compound?
A: 58.9151%

Q: And the “% inhibition Apol 90'” value (DRC-1, concentration 40)?
A: 72.0375%

Q: What about the “% inhibition Apol 90'” value (DRC-1, concentration 80) of the same compound?
A: 69.2174%

Q: And the “% inhibition apPOL 180'” value (DRC-1, concentration 2.5)?
A: 1.481%

Q: And the “% inhibition apPOL 180'” value (DRC-1, concentration 5)?
A: 22.6897%

Q: What about the “% inhibition apPOL 180'” value (DRC-1, concentration 10) of the same compound?
A: 46.7432%

Q: And the “% inhibition apPOL 180'” value (DRC-1, concentration 20)?
A: 45.7545%

Q: What about the “% inhibition apPOL 180'” value (DRC-1, concentration 40) of the same compound?
A: 68.8362%

Q: And the “% inhibition apPOL 180'” value (DRC-1, concentration 80)?
A: 73.043%

Q: And the “% inhibition Apo pol 5'” value (DRC-2, concentration 2.5)?
A: 1.29%

Q: And the “% inhibition Apo pol 5'” value (DRC-2, concentration 5)?
A: 13%

Q: And the “% inhibition Apo pol 5'” value (DRC-2, concentration 10)?
A: 21%

Q: What about the “% inhibition Apo pol 5'” value (DRC-2, concentration 20) of the same compound?
A: 2.29%

Q: What about the “% inhibition Apo pol 5'” value (DRC-2, concentration 40) of the same compound?
A: -21%

Q: And the “% inhibition Apo pol 5'” value (DRC-2, concentration 80)?
A: -45%

Q: What about the “% inhibition Apol 40'” value (DRC-2, concentration 2.5) of the same compound?
A: 3.43%

Q: What about the “% inhibition Apol 40'” value (DRC-2, concentration 5) of the same compound?
A: 26%

Q: And the “% inhibition Apol 40'” value (DRC-2, concentration 10)?
A: 44%

Q: What about the “% inhibition Apol 40'” value (DRC-2, concentration 20) of the same compound?
A: 42%

Q: What about the “% inhibition Apol 40'” value (DRC-2, concentration 40) of the same compound?
A: 32%

Q: And the “% inhibition Apol 40'” value (DRC-2, concentration 80)?
A: 20%

Q: What about the “% inhibition ApPOL 90'” value (DRC-2, concentration 2.5) of the same compound?
A: 1%

Q: And the “% inhibition ApPOL 90'” value (DRC-2, concentration 5)?
A: 23%

Q: What about the “% inhibition ApPOL 90'” value (DRC-2, concentration 10) of the same compound?
A: 44%

Q: And the “% inhibition ApPOL 90'” value (DRC-2, concentration 20)?
A: 47%

Q: What about the “% inhibition ApPOL 90'” value (DRC-2, concentration 40) of the same compound?
A: 44%

Q: What about the “% inhibition ApPOL 90'” value (DRC-2, concentration 80) of the same compound?
A: 38%

Q: And the “% inhibition apPOL 180'” value (DRC-2, concentration 2.5)?
A: -4.64%

Q: And the “% inhibition apPOL 180'” value (DRC-2, concentration 5)?
A: 13%

Q: And the “% inhibition apPOL 180'” value (DRC-2, concentration 10)?
A: 36%

Q: And the “% inhibition apPOL 180'” value (DRC-2, concentration 20)?
A: 47%

Q: And the “% inhibition apPOL 180'” value (DRC-2, concentration 40)?
A: 51%

Q: What about the “% inhibition apPOL 180'” value (DRC-2, concentration 80) of the same compound?
A: 53%

Q: And the “DNA Pol” value (primary screen value, DNA Pol)?
A: 48
